Data from patent US9394286B2, “Rock inhibitors” (Amakem NV, priority 2012, dated 2016).
Structures can show the parent of a compound that is named as a salt.

Key:
ROCK2 = ROCK2 (Homo sapiens, UniProt O75116); assay: Kinase inhibition (ROCKI & ROCKII), radiometric 33P-ATP assay; format: biochemical; details: ROCK 1 nM, 120 min at room temperature
Experimental: On-target activity against ROCK was measured in a biochemical assay, using the following reagents: Base Reaction buffer; 20 mM Hepes (pH 7.5), 10 mM MgCl2, 1 mM EGTA, 0.02% Brij35, 0.02 mg/ml BSA, 0.1 mM Na3VO4, 2 mM DTT, 1% DMSO. Required cofactors are added individually to each kinase reaction. The reaction procedure first involved the preparation of a peptide substrate in a freshly prepared reaction buffer. Required cofactors were then added to the substrate solution. ROCK (1 nM final concentration) was then delivered to the substrate solution. After gentle mix, DMSO solutions of the test compounds were added to the enzyme. Substrate mix ^33P-ATP (specific activity 0.01 μCi/μl final) was then delivered into the reaction mixture to initiate the reaction. The kinase reaction was incubated for 120 min. at room temperature. Reactions were then spotted onto P81 ion exchange paper (Whatman #3698-915). Filters were washed extensively in 0.1% Phosphoric acid. A radiometric count was then performed and IC50 values were subsequently determined.
The IC50 values obtained (in accordance with the protocol set forth above) are represented as follows: “+++” means IC50 below 0.1 μM, “++” means IC50 between 0.1 μM and 1 μM; “+” means IC50 between 1 and 10 μM and “ND” means “not determined yet”.

[1] = test system: MLC-T18/S19 phosphorylation; assay: Myosin light chain phosphorylation assay (ELISA) in A7r5 cells; format: cell-based, Rat; details: for EC50: Rattus norvegicus, MLC-T18/S19 phosphorylation, A7r5 cells, serum-free medium
Experimental: Rat smooth muscle cell line A7r5 is used. The endogenous expression of ROCK results in a constitutive phosphorylation of the regulatory myosin light chain at T18/S19. A7r5 cells were plated in DMEM supplemented with 10% FCS in multiwall cell culture plates. After serum starvation overnight, cells were incubated with compounds in serum-free medium.
Quantification of MLC-T18/S19 phosphorylation is assesses in 96 well-plates via ELISA using a phspho-MLC-T18/S19 specific antibody and a secondary detection antibody. Relative MLC phosphorylation is measured with respect to untreated cells (Positive control, 1.0) and cells treated with 100 μM Y-27632 (Negative control, 0.0). EC50 values were determined using GraphPad Prism 5.01 software using a nonlinear regression curve fit with variable hill slope.
The […] values obtained (in accordance with the protocols set forth above) are represented as follows: “+++” means EC50 below 0.3 μM, “++” means EC50 between 0.3 μM and 1 μM; “+” means EC50 between 1 and 10 μM and “−” means EC50>10 μM.

[2] = Stability assay in rabbit aqueous humor; format: in vitro ADME; details: 1 μM compound in rabbit aqueous humor, LC-MS/MS; read-out: t½ AH
Experimental: Compounds are incubated at a concentration of 1 μM in rabbit aqueous humor (AH). Samples are taken at fixed time points and the remnant of compound is determined by LC-MS/MS after protein precipitation. Half life is expressed in minutes.

[3] = Stability assay in human plasma; format: in vitro ADME; details: 1 μM compound, LC-MS/MS, read-out: t½ human plasma
Experimental: (§1) Compounds are incubated at a concentration of 1 μM in human or animal (rat, mice or rabbit) […] or whole blood. Samples are taken at fixed time points and the remnant of compound is determined by LC-MS/MS after protein precipitation. Half life is expressed in minutes.

[4] = Stability assay in human whole blood; format: in vitro ADME; details: 1 μM compound, LC-MS/MS, read-out: t½ human whole blood
Experimental: as §1

Sequence of ROCK2 (O75116 whole entry, species assumed): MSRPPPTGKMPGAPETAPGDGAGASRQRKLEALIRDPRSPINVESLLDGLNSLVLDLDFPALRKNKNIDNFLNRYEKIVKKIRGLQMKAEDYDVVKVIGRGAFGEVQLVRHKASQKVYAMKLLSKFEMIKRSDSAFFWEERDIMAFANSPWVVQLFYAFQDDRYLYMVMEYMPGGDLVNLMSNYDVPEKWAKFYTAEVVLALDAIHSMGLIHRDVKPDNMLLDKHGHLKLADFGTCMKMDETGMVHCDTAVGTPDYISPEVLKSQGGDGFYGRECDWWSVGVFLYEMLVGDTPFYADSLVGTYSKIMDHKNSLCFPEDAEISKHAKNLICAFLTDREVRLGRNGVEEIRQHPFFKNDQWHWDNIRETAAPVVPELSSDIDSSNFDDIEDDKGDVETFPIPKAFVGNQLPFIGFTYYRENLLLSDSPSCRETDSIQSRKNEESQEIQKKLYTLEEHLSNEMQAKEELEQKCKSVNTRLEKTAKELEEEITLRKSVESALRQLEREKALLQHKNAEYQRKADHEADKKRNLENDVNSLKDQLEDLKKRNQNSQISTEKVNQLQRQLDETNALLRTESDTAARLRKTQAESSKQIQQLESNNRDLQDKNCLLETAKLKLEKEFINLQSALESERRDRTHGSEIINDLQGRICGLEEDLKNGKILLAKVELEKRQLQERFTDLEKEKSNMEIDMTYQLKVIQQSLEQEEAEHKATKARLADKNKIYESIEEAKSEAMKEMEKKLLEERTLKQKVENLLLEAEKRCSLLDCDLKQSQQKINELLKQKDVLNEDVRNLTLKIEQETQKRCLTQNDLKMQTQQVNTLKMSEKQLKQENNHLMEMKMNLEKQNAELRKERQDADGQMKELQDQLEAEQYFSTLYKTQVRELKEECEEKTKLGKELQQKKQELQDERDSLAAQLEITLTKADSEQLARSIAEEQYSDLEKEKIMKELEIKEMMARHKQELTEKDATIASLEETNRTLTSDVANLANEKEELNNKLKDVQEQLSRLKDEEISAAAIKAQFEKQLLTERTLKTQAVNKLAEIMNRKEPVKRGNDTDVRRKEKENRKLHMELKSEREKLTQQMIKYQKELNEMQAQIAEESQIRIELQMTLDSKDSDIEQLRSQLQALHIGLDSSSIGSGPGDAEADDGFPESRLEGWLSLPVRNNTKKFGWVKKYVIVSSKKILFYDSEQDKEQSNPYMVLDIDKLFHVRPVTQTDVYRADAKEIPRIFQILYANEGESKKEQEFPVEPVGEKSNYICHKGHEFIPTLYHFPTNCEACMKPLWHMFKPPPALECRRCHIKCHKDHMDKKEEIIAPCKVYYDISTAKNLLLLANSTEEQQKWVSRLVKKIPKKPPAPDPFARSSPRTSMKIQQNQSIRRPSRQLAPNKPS

IC50 (ROCK2) [nM] | EC50 [1] [nM] | half-life at 1 μM [2] [min] | half-life at 1 μM [3] [min] | half-life at 1 μM [4] [min] | difference in EC50 values between compound 32 and its metabolite Met1 ([1]; MLC phosphorylation assay, FIG. 1, Met1 versus parent compound 32) [fold] | Compound
< 100 | – | – | – | – | – | O=C(Nc1cccc(CN2CCC(Nc3cccc4cnccc34)C2)c1)c1ccc(C(=O)OCC2CCCO2)cc1 (stereo not shown) [Compound 26]
– | 300 to 1000 | – | – | – | – | C[C@@H](N)[C@H]1CC[C@H](C(=O)Nc2ccncc2)CC1 [Compound Y-27632, Y-27632, reference compound]
< 100 | < 300 | > 120 | – | – | – | COC(=O)c1cccc(C(=O)Nc2cccc(CN3CCC(Nc4cccc5cnccc45)C3)c2)c1 (stereo not shown) [Compound 1, Methyl 3-((3-((3-(isoquinolin-5-ylamino)pyrrolidin-1-yl)methyl)phenyl)carbamoyl)benzoate]
– | – | > 120 | 33 | – | – | COC(=O)c1cccc(C(=O)Nc2cc(CN3CCCC(Nc4ccc5[nH]ncc5c4)C3)ccc2C)c1 (stereo not shown) [Compound 3, Methyl 3-((5-((3-((1H-indazol-5-yl)amino)piperidin-1-yl)methyl)-2-methylphenyl)carbamoyl)benzoate dihydrochloride]
< 100 | – | > 120 | < 20 | – | – | CCCOC(=O)c1cccc(C(=O)Nc2cccc(CNC3CCC(Nc4cccc5cnccc45)CC3)c2)c1 (stereo not shown) [Compound 27]
< 100 | < 300 | > 120 | < 20 | < 20 | – | COCCOC(=O)c1cccc(C(=O)Nc2cccc(CN3CCC(Nc4cccc5cnccc45)C3)c2)c1 (stereo not shown) [Compound 22]
< 100 | – | > 120 | < 20 | – | – | CCCOC(=O)c1cccc(C(=O)Nc2cccc(CN3CCC(Nc4cccc5cnccc45)CC3)c2)c1 [Compound 33]
< 100 | – | – | – | – | – | COC(=O)c1cccc(C(=O)Nc2cccc(CN3CCC(Nc4cccc5cnccc45)CC3)c2)c1 [Compound 18]
< 100 | – | – | – | – | – | COCCOC(=O)c1ccc(C(=O)Nc2cccc(CN3CCC(Nc4cccc5cnccc45)C3)c2)cc1 (stereo not shown) [Compound 25]
< 100 | – | – | – | – | – | COCCOC(=O)c1ccc(C(=O)Nc2cccc(CN3CCC(Nc4cccc5cnccc45)CC3)c2)cc1 [Compound 37]
< 100 | < 300 | 120 | < 20 | < 20 | – | CCCOC(=O)c1cccc(C(=O)Nc2cccc(CN3CCC(Nc4cccc5cnccc45)C3)c2)c1 (stereo not shown) [Compound 21]
– | – | – | – | – | > 20 | O=C(O)c1ccc(C(=O)Nc2cccc(CNC3CCC(Nc4cccc5cnccc45)CC3)c2)cc1 (stereo not shown) [Met1]
– | – | > 120 | – | – | – | COC(=O)c1ccc(C(=O)Nc2cc(CN3CCCC(Nc4ccc5[nH]ncc5c4)C3)ccc2C)cc1 (stereo not shown) [Compound 15]
< 100 | 300 to 1000 | – | 20 | – | – | O=C(Nc1cccc(CNC2CCC(Nc3cccc4cnccc34)CC2)c1)c1ccc(C(=O)OCC2CCCO2)cc1 (stereo not shown) [Compound 32]
< 100 | – | – | – | – | – | CCCOC(=O)c1ccc(C(=O)Nc2cccc(CNC3CCC(Nc4cccc5cnccc45)CC3)c2)cc1 (stereo not shown) [Compound 30]
< 100 | – | – | – | – | – | O=C(Nc1cccc(CN2CCC(Nc3cccc4cnccc34)CC2)c1)c1ccc(C(=O)OCC2CCCO2)cc1 (stereo not shown) [Compound 38]
< 100 | – | – | – | – | – | CCCOC(=O)c1ccc(C(=O)Nc2cccc(CN3CCC(Nc4cccc5cnccc45)CC3)c2)cc1 [Compound 36]
< 100 | – | – | – | – | – | COC(=O)c1ccc(C(=O)Nc2cccc(CNC3CCC(Nc4cccc5cnccc45)CC3)c2)cc1 (stereo not shown) [Compound 17]
< 100 | < 300 | – | – | – | – | CCCOC(=O)c1ccc(C(=O)Nc2cccc(CN3CCC(Nc4cccc5cnccc45)C3)c2)cc1 (stereo not shown) [Compound 24]
< 100 | – | > 120 | < 20 | – | – | O=C(Nc1cccc(CN2CCC(Nc3cccc4cnccc34)CC2)c1)c1cccc(C(=O)OCC2CCCO2)c1 (stereo not shown) [Compound 35]
< 100 | < 300 | – | < 20 | – | – | COC(=O)c1cccc(C(=O)Nc2cccc(CNC3CCC(Nc4cccc5cnccc45)CC3)c2)c1 (stereo not shown) [Compound 16]
< 100 | < 300 | – | – | – | – | COC(=O)c1ccc(C(=O)Nc2cccc(CN3CCC(Nc4cccc5cnccc45)C3)c2)cc1 (stereo not shown) [Compound 2, Methyl 4-((3-((3-(isoquinolin-5-ylamino)pyrrolidin-1-yl)methyl)phenyl)carbamoyl)benzoate]
< 100 | – | > 120 | < 20 | – | – | O=C(Nc1cccc(CNC2CCC(Nc3cccc4cnccc34)CC2)c1)c1cccc(C(=O)OCC2CCCO2)c1 (stereo not shown) [Compound 29]
< 100 | – | > 120 | < 20 | – | – | COCCOC(=O)c1cccc(C(=O)Nc2cccc(CNC3CCC(Nc4cccc5cnccc45)CC3)c2)c1 (stereo not shown) [Compound 28]
< 100 | – | 77 | < 20 | < 20 | – | O=C(Nc1cccc(CN2CCC(Nc3cccc4cnccc34)C2)c1)c1cccc(C(=O)OCC2CCCO2)c1 (stereo not shown) [Compound 23]
< 100 | – | – | – | – | – | COC(=O)c1ccc(C(=O)Nc2cccc(CN3CCC(Nc4cccc5cnccc45)CC3)c2)cc1 [Compound 19]
– | – | > 120 | 31 | – | – | COC(=O)c1cccc(C(=O)Nc2cc(CN3CCC(Nc4cccc5cnccc45)C3)ccc2C)c1 (stereo not shown) [Compound 7]
< 100 | – | – | – | – | – | COCCOC(=O)c1ccc(C(=O)Nc2cccc(CNC3CCC(Nc4cccc5cnccc45)CC3)c2)cc1 (stereo not shown) [Compound 31]
< 100 | 300 to 1000 | > 120 | < 20 | – | – | COCCOC(=O)c1cccc(C(=O)Nc2cccc(CN3CCC(Nc4cccc5cnccc45)CC3)c2)c1 [Compound 34]
– | 1000 to 10000 | – | – | – | – | O=S(=O)(c1cccc2cnccc12)N1CCCNCC1 [Fasudil, reference compound]
